The target in one test is T1, Adenosine receptor A1 (Rattus norvegicus, UniProt P25099).
T1 sequence (P25099 whole entry): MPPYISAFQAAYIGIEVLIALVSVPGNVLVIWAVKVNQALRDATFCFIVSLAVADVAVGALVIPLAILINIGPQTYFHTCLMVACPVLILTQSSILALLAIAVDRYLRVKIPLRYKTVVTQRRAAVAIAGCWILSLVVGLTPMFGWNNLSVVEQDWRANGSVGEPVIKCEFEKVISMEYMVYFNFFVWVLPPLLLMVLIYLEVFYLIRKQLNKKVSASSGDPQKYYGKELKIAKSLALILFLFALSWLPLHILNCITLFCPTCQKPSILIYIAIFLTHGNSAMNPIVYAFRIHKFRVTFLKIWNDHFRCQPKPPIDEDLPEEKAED
As to the kind of experiment: Displacement of [3H]R-N6-phenylisopropyladenosine from adenosine A1 receptor in rat cerebral cortical membrane. In kind it is cell membranes. The note with it: read-out: -Log Ki (converted). (In general: Displacement assays read how much labelled ligand stays bound in the presence of the test substance.)
`OCC1CC=CC1n1cnc2c(NC3CCCC3)ncnc21` (racemic): the Ki was 333 µM.

Still in this test, the particulars now being: read-out: Ki.
Regarding `OCC1CC=CC1n1cnc2c(NC3CC3)ncnc21` (racemic), the Ki came to 32.3 µM.
Still for that read-out and setting: the result for `OCC1CC=CC1n1cnc2c(NCc3ccccc3I)ncnc21` (racemic) reads 25.5 µM; that for `OCC1CC=CC1n1cnc2c(NC3CCCC3)ncnc21` (racemic), 3 µM.

The next test addresses T2, Adenosine receptor A1 (Rattus norvegicus) (UniProt P25099).
T2 sequence (whole entry): T1 sequence (P25099 whole entry)
As to the kind of experiment: Displacement of [3H]R-N6-phenylisopropyladenosine from adenosine A1 receptor in rat cerebral cortical membrane at 100 uM. Format: cell membranes.
Conditions: not given
The molecule `NNc1ncnc2c1ncn2C1C=CCC1CO` (racemic) yielded an inhibition of 29%.
Same read-out and setting: the result for `CNC(=O)C1CC=CC1n1cnc2c(NC3CC3)ncnc21` (racemic) reads 50%; that for `CNC(=O)C1CC=CC1n1cnc2c(N)ncnc21` (racemic), 22%.
Still for that read-out and setting: under `CNC(=O)C1CCCC1n1cnc2c(NC3CCCC3)ncnc21` (racemic) stands 31%; under `CNC(=O)C1CC=CC1n1cnc2c(NCc3ccccc3)ncnc21` (racemic), less than 10%; under `CNC(=O)C1CCCC1n1cnc2c(NC3CC3)ncnc21` (racemic), less than 10%.
Same read-out and setting: under `CNC(=O)C1CCCC1n1cnc2c(NCc3ccccc3I)ncnc21` (racemic) stands less than 10%; under `CNC(=O)C1CC=CC1n1cnc2c(NC3CCCC3)ncnc21` (racemic), less than 10%; under `CNC(=O)C1CCCC1n1cnc2c(NCc3ccccc3)ncnc21` (racemic), 26%.
Turning to `CNC(=O)C1CCCC1n1cnc2c(N)ncnc21` (racemic), the inhibition is 25%.

For orientation: Ki means a measure of affinity in units of concentration, obtained from inhibition or displacement. Broadly, the inhibition is how much of the control response was suppressed. A lower inhibition goes with a weak effect.

For the origin of these results see ChEMBL document CHEMBL1142262, “New QSAR combined strategy for the design of A1 adenosine receptor agonists” (Bioorg Med Chem, 2008).
